Test results as given in article PMC5418359, “Topical Ophthalmic Formulation of Trichostatin A and SurR9-C84A for Quick Recovery Post-alkali Burn of Corneal Haze” (Frontiers in Pharmacology, 2017).

Experiments:
[1] = tested on: conjunctival layer and corneal matrix; assay: H&E histology of corneal segments, rat alkali burn model; assay type: in vivo; conditions: 1 M NaOH 1 min, topical treatment 40 min
Procedure: After the completion of the study, all tissues that required to be examined (eyes, brain, kidneys, liver, spleen, heart and lungs) were isolated. The cornea was carefully separated from the eye without damaging it and washed using phosphate buffer saline (PBS). Tissues were fixed using 4% paraformaldehyde (PF) overnight at 4°C and then washed in PBS. The tissue segments were dehydrated in graded ethanol, embedded in paraffin and 5–7 μm thick sections were cut using a microtome. Sections were collected on poly-lysine coated slides using the Leica cryostat and were fixed immediately in ice-cold acetone. All the sections were stained for haematoxylin–eosin (H&E) for critical analysis.

[2] = tested on: expression of survivin, TGF-beta-1, alpha-SMA and collagen IV in alkali burnt cornea; assay: Ex vivo RT-PCR dose ranging in alkali burnt rat eyes; conditions: 1 M NaOH 1 min, treatment 40 min
Procedure: This procedure was carried out using a previously published protocol ([Lin et al., 2016]). Rat eyes were harvested from humanely killed rats and washed with HBSS. Rat eyes were further incubated with 1 M NaOH for 1 min and then treated with TSA ([…]), SurR9-C84A (0.5, 1.2, and 2.5 mg/kg), pSur/As-Sur ([…]) and empty plasmid (200, 400, and 800 μg/kg) for 40 min. Untreated eyes were maintained as controls. After treatment period, eyes were washed with PBS and total RNA was extracted using the TRIzol® reagent (cat# 15596-026, Thermo Fisher Scientific, Waltham, MA, USA), and complementary DNA (cDNA) was synthesized from RNA using the RevertAid H Minus First Strand cDNA Synthesis Kit (cat# K1631, Thermo Fisher Scientific). Expression of survivin, TGF-beta-1, alpha-SMA and collagen IV was determined by polymerase chain reaction (PCR).

rat corneal tissues = conditions: for clathrin (conjunctival layer) and claudin (corneal layer) expressions, immunofluorescence: post-NaOH insult
cornea = assay: Mean opacity and mean permeability measurements, rat alkali burn model; assay type: in vivo; conditions: for Mean in vitro score / Mean opacity measurement: 1 M NaOH 1 min, topical treatment 40 min; for Predicted irritation potential: rat, in vivo
Procedure: The mean in vivo scores was determined using the mean opacity measurements. The rat eyes were excised carefully and carried to the laboratory in HBSS supplemented with penicillin/streptomycin. The measurement of mean opacity was carried out using an opacitometer which measures the transmission of light through the center of each mounted cornea. The mean permeability score was determined by adding a fluorescent (rhodamine solution) on the anterior side of the holder and the corneas were incubated in a horizontal position for 90 min at 32°C. The medium in the posterior chamber was removed and added to 96 well plates and the OD at 490 nm was read. The readings obtained at OD490 were used to determine the permeability of each treatment with respect to the change in the untreated corneas.

corneal lysate = assay: Multianalyte ELISA of inflammatory cytokines in corneal lysate; assay type: in vivo, rat
Procedure: The cytokine profiling was performed using the Rat Inflammatory Cytokines & Chemokines Multi-Analyte ELISArray Kit (QIAGEN, USA). Briefly, serial dilutions of the Antigen Standard and the experimental samples were prepared. 50 μL of Assay Buffer was added to each well of the 8-well ELISA strips. Fifty microliters samples and/or standards were added to the appropriate wells of the ELISA strips and incubated for 2 h at room temperature. The ELISA strips were further washed using 350 μL 1 × Washing Buffer thrice. Hundred microliters of Detection Antibody solution was added to the ELISA strips and incubated for 1 h at room temperature. ELISA wells were washed as mentioned above. Hundred microliters of the Avidin–HRP solution was added to all wells and incubated for 30 min at room temperature. ELISA wells were washed as mentioned above. Hundred microliters of Development Solution was added to each well and incubated for 15 min at room temperature in the dark. Hundred microliters of Stop Solution was added to each well. The color changed from blue to yellow. The absorbance at 450 nm was measured within 30 min of stopping the reaction. The estimation of pg/mL of cytokines was performed using the values obtained from antigen standards and a graph was plotted for the cytokine expression with the effect of treatments.

[3] = tested on: rat eyes post-alkali burn
Blood analysis = assay type: in vivo; design: HCT / MCH / WBC / RBC / HGB / MCHC: unit not given here; conditions: rat blood; for MCV: in fL (unit assumed)
Procedure: The analysis of blood samples was performed directly using the ABX Micros ES 60 (Horiba Medicals). The parameters analyzed included the number of red blood cells (RBC’s), white blood cells (WBC’s), platelets and hemoglobin content. Briefly, 20 μL of the blood sample was acquired in the instrument and the readings were recorded.

Compound | corneal tissue integrity (conjunctival layer, corneal matrix), H&E [1] | alpha-SMA expression, immunofluorescence (rat corneal tissues; confocal microscopy) | survivin expression, immunofluorescence (rat corneal tissues; confocal microscopy) | clathrin (conjunctival layer) and claudin (corneal layer) expressions, immunofluorescence (rat corneal tissues) | Mean in vitro score (cornea) | Mean opacity measurement (cornea) | Predicted irritation potential (cornea) | IL-1 beta expression, ELISA (corneal lysate) | IL-4 expression, ELISA (corneal lysate) | Collagen type IV gene expression, qRT-PCR [3] | IL-1 beta gene expression, qRT-PCR [3] | MMP-2 gene expression, qRT-PCR [3] | TGF-beta-1 gene expression, qRT-PCR [3] | MCHC (Blood analysis) | RBC (Blood analysis) | WBC (Blood analysis) | MCV (Blood analysis) | also measured
SurR9-C84A: dominant negative survivin protein (survivin mutant) | recovery of the conjunctival layer | substantial decrease | increase | more effective than TSA alone | 0.0^∗ | 0.0^∗ | No irritation | further increase | increase | efficiently downregulated | increase | downregulating | further increase | 36.61 ± 1.57 | 8.35 ± 0.99 | 1.3 ± 3.18 | 55.66 ± 1.86 | most effective dosage in inhibiting expression of survivin, alpha-SMA, TGF-beta-1 and collagen IV [2]: 1.2 mg/kg; downregulation of alpha-SMA, western blot (rat corneal lysates; post-NaOH insult): 6.75 fold; enhancement of Fibronectin-1 expression, western blot (rat corneal lysates; post-NaOH insult): 1.97 fold; increase in TGF-beta-1 expression, western blot (rat corneal lysates; post-NaOH insult): 2.4 fold; increase in survivin expression, western blot (rat corneal lysates; post-NaOH insult): 7.7 fold; IL-1 alpha expression, ELISA (corneal lysate): significantly increase; IL-2 expression, ELISA (corneal lysate): significantly increased; Fibronectin-1 gene expression, qRT-PCR [3]: significantly enhanced; alpha-SMA gene expression, qRT-PCR [3]: significant decrease; survivin gene expression, qRT-PCR [3]: significantly increased; HCT (Blood analysis): increased the HCT count to normal range; HGB (Blood analysis): 17.1 ± 1.11; MCH (Blood analysis): reduced to normal range; PLT (Blood analysis): increased; HCT (Blood analysis; listed as NaOH–SurR9-C84A): 46.85 ± 4.14; MCH (Blood analysis; listed as NaOH–SurR9-C84A): 20.36 ± 1.42; PLT (Blood analysis; listed as NaOH–SurR9-C84A): 547.16 ± 130
[Na+].[OH-] [NaOH] | damage of the conjunctival layer and the corneal matrix | substantially enhanced | slightly increased | substantially lowered | 10.2 ± 0.5^∗∗∗ | 2.5 ± 0.5^∗∗ | Moderate irritation | increase | decrease | increase | decreased | increase | increase | 37.51 ± 4.79 | 6.53 ± 2.89 | 3.4 ± 1.19 | 62.5 ± 8.01 | increase in alpha-SMA expression, western blot (rat corneal lysates; NaOH insult): 2.7 fold; decrease/downregulation of collagen type IV, western blot (rat corneal lysates; rat, in vivo, iv): 1.1 fold; collagen type IV expression, immunofluorescence (rat corneal tissues; confocal microscopy): downregulated; GMCSF expression, ELISA (corneal lysate): enhanced; IFN-gamma expression, ELISA (corneal lysate): upregulated; IL-6 expression, ELISA (corneal lysate): enhanced; IL-10 expression, ELISA (corneal lysate): significant increase; IL-12 expression, ELISA (corneal lysate): decreased; IL-13 expression, ELISA (corneal lysate): enhanced; Rantes expression, ELISA (corneal lysate): upregulated; TNF-alpha expression, ELISA (corneal lysate): enhanced; IL-6 gene expression, qRT-PCR [3]: increased; MMP-9 gene expression, qRT-PCR [3]: lowered; TNF-alpha gene expression, qRT-PCR [3]: increased; alpha-integrin 5 gene expression, qRT-PCR [3]: lowered
